From ChEMBL document CHEMBL1151509, “Synthesis of active metabolites of indole pyrrolothiazole paf antagonists” (Bioorg Med Chem Lett, 1995)

Experiments:
Rattus norvegicus = assay: Inhibition of PAF induced cutaneous vascular permeability in rat by intravenous administration; assay type: functional
[1] = target: Platelet-activating factor receptor (Rattus norvegicus, UniProt P46002); assay: Inhibition of platelet activating factor(PAF) by binding to PAF receptor
Chain of Platelet-activating factor receptor (P46002 whole entry): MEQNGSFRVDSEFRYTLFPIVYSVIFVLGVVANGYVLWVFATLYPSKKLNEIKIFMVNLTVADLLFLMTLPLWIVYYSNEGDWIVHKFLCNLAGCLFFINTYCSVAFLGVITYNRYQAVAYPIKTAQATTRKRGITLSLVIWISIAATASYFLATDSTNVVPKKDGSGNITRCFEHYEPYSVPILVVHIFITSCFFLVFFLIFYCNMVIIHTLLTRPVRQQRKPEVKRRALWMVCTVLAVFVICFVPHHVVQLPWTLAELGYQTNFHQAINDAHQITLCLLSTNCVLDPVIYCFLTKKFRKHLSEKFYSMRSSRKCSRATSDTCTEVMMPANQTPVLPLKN

Ki [1] [µM]	Compound	ED50 (Rattus norvegicus; Rattus norvegicus, iv, read-out: ED50) [mg/kg]	ED50 (Rattus norvegicus) [mg/kg]
	CN(C)C(=O)n1cc(C(=O)c2ccn3c2CS[C@@H]3c2cccnc2)c2ccc(-c3ccc(F)cc3)cc21	0.006	
0.0085	CN(C)C(=O)n1cc(C(=O)c2ccn3c2C[S+]([O-])[C@@H]3c2cccnc2)c2ccc(-c3ccc(F)cc3)cc21 (stereo in doubt; cis)		0.025
0.068	CN(C)C(=O)n1cc(C(=O)c2ccn3c2C[S+]([O-])[C@@H]3c2cccnc2)c2ccc(-c3ccc(F)cc3)cc21 (stereo in doubt; trans)		0.1
